Experimental data taken from patent US12171777B2, “Methods of making a cyclic dinucleotide” (TAKEDA PHARMACEUTICAL COMPANY LIMITED, priority 2016, dated 2024).
Structures can show the parent of a compound that is named as a salt.

Tests used:
[1] = Human plasma stability assay; assay type: in vitro ADME; conditions: elimination rate constant k; heparinized human plasma, 37° C., 0-24 hours
Description: The compound was incubated in heparinized human plasma at 37° C. for 0, 1, 2, 4, 8 and 24 hours, and the change in compound concentration was measured by LC/MS/MS method. The elimination rate constant (=k(/h)) was calculated based on the fitted curve assuming the exponential decrease of concentration as follows; concentration at time x=initial concentration*exp(−k*x).

[2] = system: CT-26 mouse tumor cells; experiment: Anti-tumor effect in CT-26 syngeneic mice model; assay type: in vivo; conditions: Balb/C mice; intravenous q3dx3; Ex3a 30 mg/kg, Ex14 1.0 mg/kg
Description: (§1) Ex14 and Ex3a were tested in syngeneic tumor models in mice. […] See FIG. 8 and FIG. 9 for the anti-tumor effect colon carcinoma CT-26 syngeneic mice model, and FIG. 10 and FIG. 11 for the anti-tumor effect in the […] B16F10 syngeneic mice model.
(§2) 8×10^4 B16F10 and 2×10^5 CT-26 mouse tumor cells were subcutaneously implanted in the flank of female C57BL/6 (B16F10) and Balb/C (CT-26) mice (n=7 per group). Vehicle (1×PBS), compound Ex3a (30 mg/kg) or Ex14 (1.0 mg/kg) were intravenously administered (final volume of 100 μL) to tumor-bearing mice once the tumor volume has reached 100 mm^3 (Day 0). Vehicle, Ex3a or Ex14 were given every 3 days for a total of 3 doses (q3dx3). Tumor and body weight measurements were taken three times per week using vernier calipers and mettler scale, respectively. Tumor volumes were determined by multiplying the square of the width (‘W’), measured along the short axis of the tumor, by one-half the length (‘L’) measured along the […]

[3] = system: B16F10 mouse tumor cells; experiment: Anti-tumor effect in B16F10 syngeneic mice model; assay type: in vivo; conditions: C57BL/6 mice; intravenous q3dx3; Ex3a 30 mg/kg, Ex14 1.0 mg/kg
Description: as §1, §2

[4] = biological target: WT STING (human wild-type TMEM173 (H232R)) (Homo sapiens (Human), UniProt Q86WV6, H232R); experiment: Reporter Gene Assay (2): ISRE NanoLuc reporter in STING-transfected 293T cells, with digitonin; assay type: cell-based; conditions: HEK-293T, 2′,3′-cGAMP (30 μM) = 100%, solvent = 0%, read-out: activity level against WT STING of test compound (30 μM)
Chain of WT STING (human wild-type TMEM173 (H232R)) (Q86WV6 whole entry H232R): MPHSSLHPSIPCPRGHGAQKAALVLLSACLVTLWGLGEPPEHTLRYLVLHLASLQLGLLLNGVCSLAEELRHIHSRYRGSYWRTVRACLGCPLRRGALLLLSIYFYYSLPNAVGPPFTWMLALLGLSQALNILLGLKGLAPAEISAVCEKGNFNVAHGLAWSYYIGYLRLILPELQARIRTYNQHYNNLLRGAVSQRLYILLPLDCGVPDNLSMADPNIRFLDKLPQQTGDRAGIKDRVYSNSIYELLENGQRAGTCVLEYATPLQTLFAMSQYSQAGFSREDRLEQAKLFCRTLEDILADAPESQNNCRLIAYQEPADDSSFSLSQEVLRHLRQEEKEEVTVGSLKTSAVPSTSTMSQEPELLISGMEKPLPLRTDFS
Description: The culture solution was removed, and the test compound diluted with assay buffer (50 mM HEPES pH 7.0, 100 mM KCl, 3 mM MgCl2, 85 mM Sucrose, 0.1 mM DTT, 0.2% BSA, 1 mM ATP, 0.1 mM GTP, 10 μg/ml Digitonin) was added thereto by 15 μL/well. The cells were cultured at 37° C. under 5% CO2 condition for 30 min, and the assay buffer was removed. Dulbecco's Modified Eagle's Medium (DMEM) (Wako Pure Chemical Industries, Ltd.) containing 10% fetal bovine serum was added thereto by 20 μL/well, and the cells were cultured at 37° C. under 5°%° CO2 condition for 4 hr. Luminescence signals derived from firefly luciferase and NanoLuc Luciferase were each measured using EnVision (PerkinElmer, Waltham, MA, US) according to Nano-Glo Dual-Luciferase Reporter Assay System (Promega, Fitchburg, WI, US) protocol. The ratio of the count of NanoLuc Luciferase divided by the count of firefly luciferase was used for calculation. The activity level of each test compound was calculated when the ratio in the cells treated with 2′,3′-cGAMP (30 μM) was considered as 100%, and the ratio in the cells treated with the solvent was considered as 0%.

| Compound | Human plasma stability [1] [h⁻¹] | anti-tumor effect, CT-26 syngeneic mice model [2] | anti-tumor effect, B16F10 syngeneic mice model [3] | activation at 30 µM [4] [%] |
| --- | --- | --- | --- | --- |
| Nc1ncnc2c1ncn2[C@@H]1O[C@@H]2COP(=O)(O)O[C@@H]3[C@H](O)[C@@H](COP(=O)(S)O[C@H]2[C@H]1F)O[C@H]3n1cc(F)c2c(=O)[nH]cnc21 (stereo partly drawn) [Ex3a, disodium (5R,7R,8R,12aR,14R,15R,15aR,16R)-14-(6-amino-9H-purin-9-yl)-15-fluoro-7-(5-fluoro-4-oxo-3,4-dihydro-7H-pyrrolo[2,3-d]pyrimidin-7-yl)-16-hydroxy-2-sulfidooctahydro-12H-5,8-methanofuro[3,2-1][1,3,6,9,11,2,10]pentaoxadiphosphacyclotetradecin-10-olate 2,10-dioxide] | 0.58 | anti-tumor effects were observed | anti-tumor effects were observed | – |
| Nc1ncnc2c1ncn2[C@@H]1O[C@@H]2COP(=O)(S)O[C@@H]3[C@H](O)[C@@H](COP(=O)(S)O[C@H]2[C@H]1O)O[C@H]3n1cc(F)c2c(=O)[nH]cnc21 (stereo partly drawn) [Example 5, 7-((5R,7R,8R,12aR,14R,15R,15aS,16R)-14-(6-amino-9H-purin-9-yl)-15,16-dihydroxy-2,10-dioxido-2,10-disulfanyloctahydro-12H-5,8-methanofuro[3,2-1][1,3,6,9,11,2,10]pentaoxadiphosphacyclotetradecin-7-yl)-5-fluoro-3,7-dihydro-4H-pyrrolo[2,3-d]pyrimidin-4-one di-triethylamine salt (Optical Isomer)] | <0.01 | – | – | 107 |
| Nc1ncnc2c1ncn2[C@@H]1O[C@@H]2COP(=O)(S)O[C@@H]3[C@H](O)[C@@H](COP(=O)(S)O[C@H]2[C@H]1F)O[C@H]3n1cc(F)c2c(=O)[nH]cnc21 (stereo partly drawn) [Example 14, 7-((2R,5R,7R,8R,10R,12aR,14R,15R,15aR,16R)-14-(6-amino-9H-purin-9-yl)-15-fluoro-16-hydroxy-2,10-dioxido-2,10-disulfanyloctahydro-12H-5,8-methanofuro[3,2-1][1,3,6,9,11,2,10]pentaoxadiphosphacyclotetradecin-7-yl)-5-fluoro-3,7-dihydro-4H-pyrrolo[2,3-d]pyrimidin-4-one di sodium salt] | <0.01 | anti-tumor effects were observed | anti-tumor effects were observed | – |
